These results are taken from US6191273A, “Substituted cyclic compounds and mixtures comprising same” (Isis Pharmaceuticals, Inc., priority 1998, dated 2001).

For assay [1], the system named is E. coli imp-. The assay is described as follows: E. coli imp- bacterial growth assay (Tier I antimicrobial). To be noted: Escherichia coli, read-out: inhibition in the E. coli procedure. In kind it is cell-based. The procedure: The strain E. coli imp- obtained from Spencer Benson (Sampson, B. A., Misra, R. & Benson, S. A., Genetics, 1989, 122, 491-501, Identification and characterization of a new gene of Escherichia coli K-12 involved in outer membrane permeability) is used in this bacterial growth assay. To initiate the exponential phase of bacterial growth prior to the assay, a sample of bacteria is grown for 6 hours in Mueller Hinton II Broth (BBL 12322) at 37° C. then re-inoculated into fresh media and grown overnight at 37° C. The bacterial cells are collected by centrifugation for 10 minutes at 3200 rpm, diluted and absorbance read at 595 nm. Bacteria diluted in 2× Mueller Hinton II Broth (75 μL) are added to the compound mixtures (75μL) for a total volume of 150 μL. The assays are performed in 96-well microplates with approximately 1×10^4 colony forming units (CFU) per well. The plates are incubated at 37° C. and growth monitored over a 24 hour period by measuring the optical density at 595 nm using a BioRad model 3550 UV microplate reader. The percentage of growth relative to a well containing no compound is determined. Ampicillin and tetracycline antibiotic controls are concurrently tested in each screening assay.
Compounds are assayed in duplicate at a single dose. […]

For assay [2], the system named is S. pyogenes [American Type Culture Collection (ATCC) # 14289]. In words: Streptococcus pyogenes bacterial growth assay (Tier I antimicrobial). To be noted: read-out: inhibition in the S. pyogenes procedure. The format is cell-based. The protocol: S. pyogenes [American Type Culture Collection (ATCC) # 14289] is used in this bacterial growth assay. To initiate the exponential phase of bacterial growth prior to the assay, a sample of bacteria is grown for 6 hours in Todd Hewitt Broth (Difco 0492-17-6) at 37° C. then re-inoculated into fresh media and grown overnight at 37° C. The bacterial cells are collected by centrifugation for 10 minutes at 3200 rpm, diluted and absorbance read at 595 nm. Bacteria diluted in 2× Todd-Hewitt Broth (75 μL) are added to the compound mixtures (75 μL) for a total volume of 150 μL. The assays are performed in 96-well microplates with approximately 1×10^4 colony forming units (CFU) per well. The plates are incubated at 37° C. and growth monitored over a 24 hour period by measuring the optical density at 595 nm using a BioRad model 3550 UV microplate reader. The percentage of growth relative to a well containing no test compound or library is determined. Ampicillin and tetracycline antibiotic controls are concurrently tested in each screening assay.
Compounds are assayed in duplicate at a single dose. Compounds which show inhibitory activity are re-tested in duplicate at multiple doses to determine minimum inhibitory concentration (MIC).

Each structure is given as a SMILES string.

The inhibition is how much of the control response was suppressed. As for `NC(=O)CN(Cc1cccc(C(F)(F)F)c1)Cc1cccc(CN(CCNCCCO)Cc2cccc(C(F)(F)F)c2)n1` [Example 66], the inhibition at 100 µM was 87% in assay [1] and 95% in assay [2].

Turning to `N=C(N)NCc1cccc(CN(CCNCCCO)Cc2cccc(C(F)(F)F)c2)n1` [Example 71], the inhibition at 100 µM in assay [2] was 95%.
